# Assay results from paper PMC7408547, “Bivalent Inhibitor with Selectivity for Trimeric MMP-9 Amplifies Neutrophil Chemotaxis and Enables Functional Studies on MMP-9 Proteoforms” (Cells, 2020).
# pIC50: −log10 of the molar value.
# Tests used:
# Assay type in all cases: biochemical
# [1] = target: T1, recombinant human MMP-9 mixture (± 70% monomers and ± 30% trimers) (Homo sapiens, UniProt P14780); test: Fluorogenic peptide (OmniMMP) degradation assay, recombinant MMP-9 mixture; conditions: recombinant human MMP-9 (Sf9) mix
# T1 construct: made in house; host or cells: Sf9 insect cells
# Protocol: Compounds 5 and 7 were synthesized as previously reported. Full-length human proMMP-9 was produced by recombinant expression in Sf9 insect cells and purified by gelatin-Sepharose chromatography as previously described. Stable full-length proMMP-9 monomers and trimers were separated by glycerol gradient ultracentrifugation as previously described. ProMMP-9 mixture and the separated monomers and trimers were activated by incubation with the catalytic domain of MMP-3 (cat. No. 444217, Merck Millipore, Darmstadt, Germany) as previously described. Activation of proMMP-9 was confirmed by a band shift of ±10 kDa, corresponding to the removal of the auto-inhibitory propeptide domain and by detection of gelatinolytic activity with a previously described gelatin degradation assay. MMP-9 monomers and trimers purified from human neutrophils were purchased (Cat. No. 444,231 and 444232, Sigma-Aldrich, St. Louis, MO, USA). Examples of sample purities and activations can be found in Supplementary Figure S1. Recombinant human proMMP-2 (CHO cell-derived), proMMP-3 (NS0 cell-derived), proMMP-7 (NS0 cell-derived) and proMMP-8 (NS0 cell-derived) were purchased from R & D systems (Minneapolis, MN, USA), dissolved in assay buffer (150 mM NaCl, 5 mM CaCl2, 0.01% Tween-20, 50 mM Tris, pH 7.4) to a concentration of 100 µg/mL and activated by incubation with 1 mM p-aminophenylmercuric acetate for, respectively, 1h, 6h, 2h and 1h. Activation of MMPs was confirmed by a band shift of approximately 10 kDa, corresponding to the removal of the propeptide domain. MMP-14/MT1-MMP (NS0 cell-derived) was also purchased from R & D systems (Minneapolis, MN, USA) and activated by incubation with recombinant human furin (cat. No. 1503-SE-010, R & D systems, Minneapolis, MO, USA) in activation buffer (50 mM Tris, 1 mM CaCl2, 0.5% Brij-35, pH 9) for 1.5 h and activity was tested in assay buffer (50 mM Tris, 3 mM CaCl2, 1 µM ZnCl2, pH 8.5). Active human neutrophil elastase (NE) was purchased from Abcam (Cambridge, UK) and for activity assays of NE the assay buffer was replaced by 200 mM Tris, pH 8.8. ADAM17/TACE (Sf 21 (baculovirus)-derived, R & D systems, Minneapolis, MO, USA) was diluted and evaluated in 25 mM Tris, 2.5 μM ZnCl2, 0.005% Brij-35, pH 9.0. All stocks of the compounds were evaluated for the presence of endotoxin using the EndoZyme II assay (Hyglos bioMérieux, Bernried am Starnberger See, Germany). Endotoxin levels in all concentrated stocks (2.5 mg/mL) were below the accepted limit of 0.5 EU/mL.
# To determine the inhibition of gelatinolytic activity, we used a previously optimized gelatin degradation assay. […] […] […] BML-P126-0001, Enzo Life Sciences, Farmingdale, NY, USA) was used at a final concentration of 2.5 µg/mL. For ADAM17 the fluorogenic peptide Mca-PLAQAV-Dpa-RSSSR-NH2 (ES003, R & D systems, Minneapolis, MO, USA) and for neutrophil elastase the fluorogenic substrate MeOSuc-AAPV-AMC (cat. no. 324740, Merck Millipore, Darmstadt, Germany) were used. Proteolytic activity was determined by linear regression of the fluorescence curve and the percentage inhibition was calculated through comparison with the positive control (no inhibitors). When testing supernatants from human neutrophils, the assay was performed in the presence of 20 µM neutrophil elastase inhibitor (Elastase Inhibitor IV, Calbiochem, Darmstadt, Germany).
# [2] = target: T2, MMP-7 (Homo sapiens, UniProt P09237); test: MMP-7 OmniMMP peptide assay; conditions: OmniMMP substrate peptide
# T2 construct: purchased R & D systems; host or cells: NS0 cells
# T2 sequence (P09237 95-267): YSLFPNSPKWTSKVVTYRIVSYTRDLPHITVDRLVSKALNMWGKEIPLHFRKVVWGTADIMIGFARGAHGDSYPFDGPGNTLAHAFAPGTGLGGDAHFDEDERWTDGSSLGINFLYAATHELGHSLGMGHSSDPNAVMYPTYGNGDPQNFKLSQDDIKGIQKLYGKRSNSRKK
# Protocol: (§1) Compounds 5 and 7 were synthesized as previously reported. Full-length human proMMP-9 was produced by recombinant expression in Sf9 insect cells and purified by gelatin-Sepharose chromatography as previously described. Stable full-length proMMP-9 monomers and trimers were separated by glycerol gradient ultracentrifugation as previously described. ProMMP-9 mixture and the separated monomers and trimers were activated by incubation with the catalytic domain of MMP-3 (cat. No. 444217, Merck Millipore, Darmstadt, Germany) as previously described. […] ADAM17/TACE (Sf 21 (baculovirus)-derived, R & D systems, Minneapolis, MO, USA) was diluted and evaluated in 25 mM Tris, 2.5 μM ZnCl2, 0.005% Brij-35, pH 9.0. All stocks of the compounds were evaluated for the presence of endotoxin using the EndoZyme II assay (Hyglos bioMérieux, Bernried am Starnberger See, Germany). […]
# (§2) To determine the inhibition of gelatinolytic activity, we used a previously optimized gelatin degradation assay. […] Next, dye-quenched gelatin (DQ™-gelatin, Invitrogen, Carlsbad, CA, USA) was added at a final concentration of 2.5 µg/mL and the increase in fluorescence over time was measured with the CLARIOstar microplate reader (BMG Labtech, Ortenberg, Germany). […]
# [3] = target: T3, MMP-3 (Homo sapiens, UniProt P08254); test: MMP-3 OmniMMP peptide assay; conditions: OmniMMP substrate peptide
# T3 construct: purchased R & D systems; host or cells: NS0 cells
# Protocol: as §1, §2
# T1 sequence (P14780 107-707 limits assumed): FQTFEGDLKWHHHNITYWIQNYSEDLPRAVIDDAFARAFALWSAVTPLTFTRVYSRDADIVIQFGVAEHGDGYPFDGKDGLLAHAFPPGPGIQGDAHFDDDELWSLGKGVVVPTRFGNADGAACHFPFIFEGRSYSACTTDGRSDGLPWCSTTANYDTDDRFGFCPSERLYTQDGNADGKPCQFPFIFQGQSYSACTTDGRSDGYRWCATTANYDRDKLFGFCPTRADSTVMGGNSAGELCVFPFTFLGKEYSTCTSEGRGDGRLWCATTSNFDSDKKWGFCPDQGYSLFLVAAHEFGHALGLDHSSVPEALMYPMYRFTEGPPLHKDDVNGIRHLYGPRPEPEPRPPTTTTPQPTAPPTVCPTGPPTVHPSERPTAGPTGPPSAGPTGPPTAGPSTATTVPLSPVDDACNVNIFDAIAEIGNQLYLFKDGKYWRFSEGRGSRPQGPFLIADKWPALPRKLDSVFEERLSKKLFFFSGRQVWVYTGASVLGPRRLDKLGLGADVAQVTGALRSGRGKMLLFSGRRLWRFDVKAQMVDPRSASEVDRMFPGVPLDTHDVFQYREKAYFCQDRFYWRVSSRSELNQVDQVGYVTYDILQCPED
# T3 sequence (P08254 100-477): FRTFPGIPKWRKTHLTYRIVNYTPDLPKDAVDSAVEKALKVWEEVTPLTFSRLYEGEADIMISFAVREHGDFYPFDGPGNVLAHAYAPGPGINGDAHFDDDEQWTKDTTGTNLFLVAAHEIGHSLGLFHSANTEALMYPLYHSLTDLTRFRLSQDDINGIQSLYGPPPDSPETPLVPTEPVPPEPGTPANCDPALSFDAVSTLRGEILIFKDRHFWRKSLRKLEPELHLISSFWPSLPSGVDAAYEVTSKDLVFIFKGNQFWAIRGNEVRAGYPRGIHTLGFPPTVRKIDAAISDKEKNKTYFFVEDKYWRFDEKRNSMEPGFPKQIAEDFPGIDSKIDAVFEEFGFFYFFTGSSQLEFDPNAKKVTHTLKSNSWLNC
Compound,IC25 [1],pIC50 [1],IC75 [1],pIC50 [2],pIC50 [3]
CC(C)[C@H](C(=O)O)N(CCNC(=O)c1ccccc1)S(=O)(=O)c1ccc(-c2ccccc2)cc1 [Compound 5],228 nM,6.14,2309 nM,< 5.00,6.02
CC(C)[C@H](C(=O)O)N(CCNC(=O)c1cccc(C(=O)NCCN([C@@H](C(=O)O)C(C)C)S(=O)(=O)c2ccc(-c3ccccc3)cc2)c1)S(=O)(=O)c1ccc(-c2ccccc2)cc1 [Compound 7],1.4 nM,7.82,169 nM,< 5.00,8.11
